Experimental data published in patent US9999690B2, “Labeled compounds and methods of imaging, diagnosing cartilage disorders and diseases, and monitoring cartilage health using labeled and unlabeled compounds” (Perosphere Inc., priority 2013, dated 2018).

Assay: physchem
Settings: water

SMILES: N=C(N)NCCCC(N)C(=O)NCCCN1CCN(CCCNC(=O)C(N)CCCNC(=N)N)CC1 (stereo not shown) [formula V, 2-Amino-5-guanidino-pentanoic acid (3-{4-[3-(2-amino-5-guanidino-pentanoylamino)-propyl]-piperazin-1-yl}-propyl)-amide]
- solubility: > 100 mg/mL
